# From US20150072995A1, “TREATMENT OF MALE SEXUAL DYSFUNCTION” (Ixchelsis Limited, priority 2002, published 2015)
# Like-named read-outs stand apart in the source and are kept apart here.
# Legend:
# [1] = tested on: sexually-experienced rats; test: Male sexual behaviour model (copulatory behaviour with receptive female); format: in vivo, rat
# Procedure: For all the sexual behaviour tests, the male rats were placed in an observation arena (50-60 cm diameter), starting 5 hours into the dark cycle and observed under red illumination. Three to four minutes after placing the male in the arena, a receptive female (ovariectomised, oestradiol benzoate/progesterone injection 48 hour before behavioural study) was introduced into the arena and the following parameters noted: • i) ejaculatory latency (EJL; time taken from addition of receptive female into the arena to ejaculation); • ii) copulatory efficiency (CE; ejaculatory latency/the number of intromissions to ejaculation, i.e. the number of seconds between intromissions); • iii) intromission frequency (IF; the number of intromissions to ejaculation); • iv) mount frequency (MF; the number of mounts to ejaculation); • v) post ejaculatory interval (PEI; the time taken from ejaculation to the commencement of copulatory behaviour).
# [2] = Free plasma concentration in rats; format: in vivo, rat; conditions: for concentration at 30 minutes: rat, plasma, preliminary pharmacokinetic studies
# anaesthetised rats [3] = test: Penile erection and p-chloroamphetamine (PCA)-induced ejaculation test in anaesthetised rats; format: in vivo, rat
# anaesthetised rats [4] = test: Splanchnic nerve-stimulated seminal vesicle pressure in anaesthetised rats; format: in vivo, rat
# Text: Seminal vesicle contraction is essential for emission and the seminal fluid delivered into the prostatic urethra is thought to trigger ejaculation. Oxytocin has direct contractile effects on mammalian seminal vesicles and may additionally have a neuromodulator role influencing sympathetic innervation during ejaculation. In this study seminal vesicle contraction was reduced by 41% after a 1 mgkg^−1 bolus injection (see FIG. 2 below).
# [5] = molecular target: T1, Human cloned vasopressin V1a receptor in CHO cells (Homo sapiens, UniProt P37288); test: Vasopressin V1a receptor binding assay (3H-AVP, filtration); conditions: printed as [6.3 nM OT: 148 nM V1a]; read-out: V1a (vasopressin V1a receptor affinity)
# T1 construct: expressed in transfected cells; host or cells: CHO cells (membrane preparation)
# T1 sequence (P37288 whole entry): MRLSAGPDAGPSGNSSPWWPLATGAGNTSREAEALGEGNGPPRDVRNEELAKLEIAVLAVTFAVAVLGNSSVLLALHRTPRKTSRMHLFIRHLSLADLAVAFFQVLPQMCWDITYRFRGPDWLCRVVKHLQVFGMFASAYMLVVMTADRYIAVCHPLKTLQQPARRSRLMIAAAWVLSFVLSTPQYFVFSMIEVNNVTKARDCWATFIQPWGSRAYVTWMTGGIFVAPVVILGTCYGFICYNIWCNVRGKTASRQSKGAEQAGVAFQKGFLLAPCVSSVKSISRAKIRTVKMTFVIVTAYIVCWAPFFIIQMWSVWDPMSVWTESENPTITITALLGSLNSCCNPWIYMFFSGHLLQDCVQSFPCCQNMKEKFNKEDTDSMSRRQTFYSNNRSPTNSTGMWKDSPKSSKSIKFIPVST
# Procedure: B. Vasopressin VIA Receptor Binding Assay
# iii) Membrane Preparation • Frozen cell pellets are retrieved from the freezer and thawed gently on ice. • 3 ml of membrane prep buffer per ml of original packed cell volume is • added and the suspension homogenised with a polytron for several bursts • of 5 seconds on ice until well dispersed before centrifuging at 1000 rpm for 10 mins • The supernatant is removed and stored on ice. A further 3 ml of membrane prep buffer per ml of original packed cell volume is added to the pellet, homogenised on ice and then centrifuged at 1000 rpm for 10 mins • The supernatant is removed, added to the previously removed volume of supernatant and then centrifuged at 25,000×g and 4° C. for 30 mins • The 25,000×g pellet is re-suspended by homogenisation in 1 ml of freezing buffer per ml of original packed cell volume and the protein concentration determined […]
# Specific binding is calculated as follows: […]
# CNS penetration = conditions: in vivo
# oxytocin receptor = molecular target: T2, oxytocin receptor (Homo sapiens, UniProt P30559); test: biochemical
# T2 sequence (P30559 1-389): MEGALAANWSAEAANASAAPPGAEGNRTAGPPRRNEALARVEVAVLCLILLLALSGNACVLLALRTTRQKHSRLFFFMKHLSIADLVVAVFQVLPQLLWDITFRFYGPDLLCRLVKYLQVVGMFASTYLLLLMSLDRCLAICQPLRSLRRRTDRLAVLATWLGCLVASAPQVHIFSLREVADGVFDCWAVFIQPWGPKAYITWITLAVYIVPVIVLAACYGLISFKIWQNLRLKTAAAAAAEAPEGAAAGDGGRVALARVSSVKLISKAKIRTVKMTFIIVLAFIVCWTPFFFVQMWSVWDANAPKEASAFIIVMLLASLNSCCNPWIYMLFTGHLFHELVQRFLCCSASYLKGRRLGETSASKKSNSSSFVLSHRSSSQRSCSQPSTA
# Procedure: • a) HTA stock compounds at 4 mM in 100% DMSO • b) Dilute compounds to 200 μM in dH2O. • c) Further dilute compounds to 100 μM in 100 mM Tris-HCl, pH 7.8, 20 mM MgCl2. […]
# • Cell pellets are retrieved from the freezer, thawed on ice and resuspended in 3 ml of membrane prep buffer per ml packed cell volume. • The suspension is then homogenised using a mechanical homogeniser for several bursts of 5 secs on ice before centrifuging at 25,000×g for 30 mins. • After resuspending the pellet in 1 ml of freezing buffer per 1 ml of the original packed cell volume the suspension is briefly homogenised to remove small lumps. Protein concentrations are then measured and the membrane suspension is finally frozen in aliquots at a minimum of 5 mg/ml at −80° C.
# • Membranes are thawed on ice before diluting to 1 mg/ml in assay buffer. […] Following a 4 hour incubation at room temperature, the plates are counted using the TopCount NXT for 30 s/well.
# For the test compounds, the amount of ligand bound to the receptor is expressed as follows: […]
# male animals = conditions: cited from earlier work
# rats = conditions: cited from earlier work
# [6] = tested on: rats, rabbits and monkeys; conditions: cited from earlier work
# rat [7] = conditions: 100 ng/rat icv; cited from earlier work
# experienced male rats = conditions: ICV injection, Argiolas et al 1988; cited from earlier work
# rat [8] = conditions: cited from earlier work
# human volunteers = conditions: cited from earlier work
# [9] = infusion into the 3rd ventricle
compound,measurement,setting,value
"Cc1ccccc1N1CCN(S(=O)(=O)CC23CCC(C[C@@H]2NC(=O)[C@@H](N)CCS(C)(=O)=O)C3(C)C)CC1 (stereo partly drawn) [L-368,899]",effect on copulatory efficiency,[1]; 50 ng/rat icv,no significant effects
same,effect on copulatory efficiency,"[1]; any of the doses tested, 0.05-10 mgkg^−1 sc",no effects
same,effect on copulatory behaviour,[1]; doses up to 10 mgkg^−1 sc,no effect
same,free plasma concentration,"[2]; after a 1.0 mgkg^−1 iv injection, based on literature PK and protein plasma binding",approximately 60 nM
same,free plasma concentration at which ejaculation was delayed 140%,"[2]; anaesthetised rats, sc",5.4 ± 1.5 nM
same,concentration at 30 minutes,[2]; 30 minutes after 1 mgkg^−1 sc,4.5 nM
same,concentration at 30 minutes,[2]; 30 minutes after 10 mgkg^−1 sc,40 nM
same,PCA-induced erections resulting in penile cups,anaesthetised rats [3]; 0.1 mg/kg,98%
same,PCA-induced erections resulting in penile flares,anaesthetised rats [3]; 0.1 mg/kg,88%
same,PCA-induced erections resulting in penile cups,anaesthetised rats [3]; 1.0 mg/kg sc,95%
same,PCA-induced erections resulting in penile flares,anaesthetised rats [3]; 1.0 mg/kg sc,61%
same,Ejaculation delayed (near maximal effect),"anaesthetised rats [3]; PCA-induced ejaculation, at free plasma concentrations 5.4±1.5 nM",140%
same,delay of PCA-induced ejaculation,"anaesthetised rats [3]; anaesthetised rats, 0.1-10 mgkg^−1 sc",significantly delayed
same,splanchnic nerve-stimulated increases in seminal vesicle pressure,anaesthetised rats [4]; 1-3 mgkg^−1 iv,significantly reduced
same,reduction of seminal vesicle contraction,anaesthetised rats [4]; after a 1 mgkg^−1 bolus injection,41%
same,Ki,[5],148 nM
same,CNS penetration,CNS penetration,very poor
same,Ki,oxytocin receptor,6.3 nM
CC[C@H](C)[C@@H]1NC(=O)[C@H](Cc2ccc(O)cc2)NC(=O)[C@@H](N)CSSC[C@@H](C(=O)N2CCC[C@H]2C(=O)N[C@@H](CC(C)C)C(=O)NCC(N)=O)NC(=O)[C@H](CC(N)=O)NC(=O)[C@H](CCC(N)=O)NC1=O [oxytocin],ejaculation latency and post-ejaculation interval,male animals; injected either centrally or peripherally,shortens
same,penile erections,male animals; injected into specific areas of the brain (periventricular nucleus of the hypothalamus),facilitates
same,ejaculatory latency,rats; [9],no effect
same,latencies to the first mount and intromission,rats; [9],increased
same,post ejaculatory refractory periods,rats; [9],lengthened
same,ejaculatory latency,rats; intravenous infusion,no effect
same,number of intromissions made before ejaculation,rats; intravenous infusion,dose dependently reduced
same,latency to achieve ejaculation,[6]; central administration,reduce
same,post-ejaculatory interval,[6]; central administration,shorten
same,induction of penile erection,"[6]; rats, rabbits and monkeys",one of the most potent agents to induce penile erection
d(CH2)5Tyr(Me)-Orn^8-vasotocin,drug-induced erections,rat [7],abolished
same,copulatory behaviour,[1]; 50 ng/rat icv,abolished
same,effect on ejaculatory latency,"[1]; doses up to 25 ng/rat icv, previous studies",no effect
same,ejaculation,experienced male rats,abolishment
same,penile erection,experienced male rats,prevent penile erection
same,sexual performance,experienced male rats,impair
same,number of non-contact erections,rat [8]; 100 ng/rat icv,reduces
same,non-contact penile erections,"rat [8]; Melis et al 1999, dose not given",significantly reduces
C=CCN1CC[C@]23c4c5ccc(O)c4O[C@H]2C(=O)CC[C@@]3(O)[C@H]1C5 [naloxone],effect on ejaculation,human volunteers,no effect
same,serum oxytocin pulse typically observed at ejaculation,human volunteers,eliminated
